In data set [1] the test system is MV4-11. The experiment in a line: Induction of apoptosis in human MV4-11 cells assessed as early apoptotic cells at 0.4 uM measured after 48 hrs by Annexin V/7-AAD-dual staining based flow cytometric analysis (reference value: 2.2 %). It is filed as functional. Background: A flow cytometer gives signals particle by particle.
Data set [2] relates to MV4-11. The data set can be described thus: Induction of mitochondrial membrane potential in human MV4-11 cells assessed as reduction in red fluorescence intensity at 0.4 uM measured after 48 hrs by JC1 staining-based flow cytometry analysis (reference value: 98.8%). Further details: scale not given: the % may be the effect or the level left. It is filed as functional.
Data set [3] deals with MV4-11. The data set can be described thus: Induction of apoptosis in human MV4-11 cells assessed as viable cells at 0.4 uM measured after 48 hrs by Annexin V/7-AAD-dual staining based flow cytometric analysis (reference value: 96.4 %). Type of data set: functional. As to conditions: read-out: Activity.
Data set [4] has as its system MV4-11. The experiment in a line: Induction of mitochondrial membrane potential in human MV4-11 cells assessed as reduction in red fluorescence intensity at 0.1 uM measured after 48 hrs by JC1 staining-based flow cytometry analysis (reference value: 98.8%). Type of data set: functional. Further details: scale not given: the % may be the effect or the level left.
A further data set addresses Histone deacetylase 2 (Homo sapiens, UniProt Q92769). The experiment in a line: Inhibition of full length recombinant human C-terminal GST-fusion-tagged human HDAC2 (1 to 488 residues) expressed in insect cells using RHK-K(Ac)-AMC as substrate incubated for 2 hrs by Multimode microplate reader analysis.
Data set [5] in a line: Metabolic stability in human liver microsomes assessed as half life measured after 5 mins in presence of NADPH and UDPGA by LC-MS/MS analysis. Type of data set: ADME, Microsome. On the technique in general: Liver microsomes are vesicles of endoplasmic reticulum, rich in cytochrome P450 enzymes.
The subject of data set [6] is MV4-11. The experiment in a line: Induction of apoptosis in human MV4-11 cells assessed as necrotic cells at 0.2 uM measured after 48 hrs by Annexin V/7-AAD-dual staining based flow cytometric analysis (reference value: 0.3 %). Type of data set: functional.
Data set [7] concerns the target T1, Polyamine deacetylase HDAC10 (Homo sapiens, UniProt Q969S8).
T1 sequence (Q969S8 whole entry): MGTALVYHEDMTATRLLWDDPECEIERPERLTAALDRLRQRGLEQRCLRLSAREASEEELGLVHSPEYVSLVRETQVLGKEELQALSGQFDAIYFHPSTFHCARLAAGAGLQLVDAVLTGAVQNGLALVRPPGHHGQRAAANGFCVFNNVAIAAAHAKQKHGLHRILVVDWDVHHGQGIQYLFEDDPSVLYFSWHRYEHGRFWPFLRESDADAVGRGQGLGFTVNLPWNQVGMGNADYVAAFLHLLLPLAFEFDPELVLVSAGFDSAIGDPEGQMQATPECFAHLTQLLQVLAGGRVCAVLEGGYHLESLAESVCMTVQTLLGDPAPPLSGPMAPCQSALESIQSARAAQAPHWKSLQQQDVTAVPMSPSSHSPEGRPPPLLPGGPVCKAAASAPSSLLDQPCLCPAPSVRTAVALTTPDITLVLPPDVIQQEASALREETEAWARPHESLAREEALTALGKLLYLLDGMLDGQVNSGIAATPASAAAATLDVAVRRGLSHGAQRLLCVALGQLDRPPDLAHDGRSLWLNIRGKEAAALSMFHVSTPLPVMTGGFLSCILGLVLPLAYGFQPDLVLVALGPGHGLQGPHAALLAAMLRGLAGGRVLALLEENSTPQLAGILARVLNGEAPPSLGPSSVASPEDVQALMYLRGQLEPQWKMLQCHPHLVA
The data set can be described thus: Inhibition of HDAC10 (unknown origin) incubated for 2 hrs by Multimode microplate reader analysis.

For another data set, the target named is T2, Histone deacetylase 7 (Homo sapiens, UniProt Q8WUI4).
T2 sequence (Q8WUI4 whole entry): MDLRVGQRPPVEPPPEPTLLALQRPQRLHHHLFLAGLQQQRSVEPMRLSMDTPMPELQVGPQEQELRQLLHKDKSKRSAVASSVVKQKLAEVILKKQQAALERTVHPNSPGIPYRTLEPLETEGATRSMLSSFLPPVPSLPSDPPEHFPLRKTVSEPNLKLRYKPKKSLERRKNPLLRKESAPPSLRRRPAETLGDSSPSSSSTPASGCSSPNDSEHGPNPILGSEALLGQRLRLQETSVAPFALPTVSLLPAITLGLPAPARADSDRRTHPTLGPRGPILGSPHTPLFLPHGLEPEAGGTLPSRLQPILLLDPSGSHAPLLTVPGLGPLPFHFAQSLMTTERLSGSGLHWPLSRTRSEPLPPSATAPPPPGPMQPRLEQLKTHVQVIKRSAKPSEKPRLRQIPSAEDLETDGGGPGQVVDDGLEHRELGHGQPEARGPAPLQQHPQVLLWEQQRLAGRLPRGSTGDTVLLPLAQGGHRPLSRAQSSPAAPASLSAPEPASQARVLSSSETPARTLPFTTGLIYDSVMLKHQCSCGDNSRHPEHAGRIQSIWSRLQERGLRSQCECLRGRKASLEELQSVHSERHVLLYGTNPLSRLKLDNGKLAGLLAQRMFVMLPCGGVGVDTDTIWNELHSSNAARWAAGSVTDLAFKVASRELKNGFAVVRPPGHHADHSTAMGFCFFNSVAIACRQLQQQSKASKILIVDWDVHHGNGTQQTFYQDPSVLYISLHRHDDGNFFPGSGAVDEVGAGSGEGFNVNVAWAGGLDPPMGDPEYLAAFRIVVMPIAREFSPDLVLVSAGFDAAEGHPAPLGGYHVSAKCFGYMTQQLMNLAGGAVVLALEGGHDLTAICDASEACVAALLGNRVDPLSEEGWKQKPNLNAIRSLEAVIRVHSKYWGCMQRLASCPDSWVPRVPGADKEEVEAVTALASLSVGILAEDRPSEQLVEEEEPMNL
The experiment in a line: Inhibition of N-terminal GST-fusion tagged recombinant human HDAC7 (518 to 991 residues) expressed in insect cells using trifluoroacetyl lysine as substrate incubated for 2 hrs by Multimode microplate reader analysis.

For data set [8], the system named is MV4-11. The data set can be described thus: Induction of apoptosis in human MV4-11 cells assessed as early apoptotic cells at 0.1 uM measured after 48 hrs by Annexin V/7-AAD-dual staining based flow cytometric analysis (reference value: 2.2 %). It is filed as functional.
For a further data set, the target named is Histone deacetylase 5 (Homo sapiens, UniProt Q9UQL6). The data set can be described thus: Inhibition of recombinant C-terminal his fusion-tagged human HDAC5 (656 to 1122 residues) expressed in baculovirus expression system using trifluoroacetyl lysine as substrate incubated for 2 hrs by Multimode microplate reader analysis.
Sequence of Histone deacetylase 5 (Q9UQL6 whole entry, the tested form may be a part): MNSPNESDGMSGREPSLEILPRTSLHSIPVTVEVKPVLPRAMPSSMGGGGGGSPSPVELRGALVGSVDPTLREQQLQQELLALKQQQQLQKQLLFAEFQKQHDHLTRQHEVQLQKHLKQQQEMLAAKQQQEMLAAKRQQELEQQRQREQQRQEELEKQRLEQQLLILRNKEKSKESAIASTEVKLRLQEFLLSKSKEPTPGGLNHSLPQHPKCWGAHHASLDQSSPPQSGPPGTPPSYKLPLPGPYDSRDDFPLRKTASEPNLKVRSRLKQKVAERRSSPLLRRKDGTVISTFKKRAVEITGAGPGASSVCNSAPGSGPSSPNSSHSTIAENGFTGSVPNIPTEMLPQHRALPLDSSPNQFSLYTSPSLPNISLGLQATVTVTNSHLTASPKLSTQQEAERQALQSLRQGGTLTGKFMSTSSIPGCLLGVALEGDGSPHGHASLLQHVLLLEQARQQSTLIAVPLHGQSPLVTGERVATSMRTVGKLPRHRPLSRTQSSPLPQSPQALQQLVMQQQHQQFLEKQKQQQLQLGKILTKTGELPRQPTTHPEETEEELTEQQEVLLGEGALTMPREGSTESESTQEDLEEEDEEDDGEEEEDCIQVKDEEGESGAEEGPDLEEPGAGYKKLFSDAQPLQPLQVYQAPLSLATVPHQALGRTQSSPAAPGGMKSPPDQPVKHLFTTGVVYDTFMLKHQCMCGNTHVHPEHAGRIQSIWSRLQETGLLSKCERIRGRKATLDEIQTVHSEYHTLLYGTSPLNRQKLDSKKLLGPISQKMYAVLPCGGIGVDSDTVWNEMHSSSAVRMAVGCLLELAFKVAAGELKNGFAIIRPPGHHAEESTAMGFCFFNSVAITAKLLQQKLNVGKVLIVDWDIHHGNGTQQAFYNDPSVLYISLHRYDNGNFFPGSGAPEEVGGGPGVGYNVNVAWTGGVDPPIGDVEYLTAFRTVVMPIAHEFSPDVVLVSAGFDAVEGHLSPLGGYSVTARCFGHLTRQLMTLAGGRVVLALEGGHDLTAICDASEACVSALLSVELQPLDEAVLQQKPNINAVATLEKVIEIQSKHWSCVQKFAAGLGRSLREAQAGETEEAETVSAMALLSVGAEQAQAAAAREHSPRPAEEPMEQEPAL
The target in a further data set is T3, Histone deacetylase 8 (Homo sapiens, UniProt Q9BY41).
T3 sequence (Q9BY41 whole entry): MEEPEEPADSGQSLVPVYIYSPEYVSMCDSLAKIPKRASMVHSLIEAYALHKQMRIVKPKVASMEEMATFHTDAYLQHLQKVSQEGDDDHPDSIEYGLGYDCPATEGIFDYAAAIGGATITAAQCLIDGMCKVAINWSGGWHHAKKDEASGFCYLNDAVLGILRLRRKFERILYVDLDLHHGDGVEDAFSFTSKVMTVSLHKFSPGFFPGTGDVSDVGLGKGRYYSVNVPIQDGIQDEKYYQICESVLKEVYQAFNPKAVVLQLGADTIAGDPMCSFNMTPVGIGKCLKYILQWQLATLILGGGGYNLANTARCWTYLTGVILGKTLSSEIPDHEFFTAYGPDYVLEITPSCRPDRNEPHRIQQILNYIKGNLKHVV
The data set can be described thus: Inhibition of recombinant C-terminal His-fusion tagged/N-terminal Strep2 tagged human HDAC8 (1 to 377 residues) expressed in insect cells using RHK-K(Ac)-K(Ac)-AMC as substrate incubated for 2 hrs by Multimode microplate reader analysis.

One may read the IC50 as the midpoint of a concentration-inhibition curve. In general, half-life refers to the time in which the quantity being followed falls by half.

Sequence of Histone deacetylase 2 (Q92769 whole entry, the tested form may be a part): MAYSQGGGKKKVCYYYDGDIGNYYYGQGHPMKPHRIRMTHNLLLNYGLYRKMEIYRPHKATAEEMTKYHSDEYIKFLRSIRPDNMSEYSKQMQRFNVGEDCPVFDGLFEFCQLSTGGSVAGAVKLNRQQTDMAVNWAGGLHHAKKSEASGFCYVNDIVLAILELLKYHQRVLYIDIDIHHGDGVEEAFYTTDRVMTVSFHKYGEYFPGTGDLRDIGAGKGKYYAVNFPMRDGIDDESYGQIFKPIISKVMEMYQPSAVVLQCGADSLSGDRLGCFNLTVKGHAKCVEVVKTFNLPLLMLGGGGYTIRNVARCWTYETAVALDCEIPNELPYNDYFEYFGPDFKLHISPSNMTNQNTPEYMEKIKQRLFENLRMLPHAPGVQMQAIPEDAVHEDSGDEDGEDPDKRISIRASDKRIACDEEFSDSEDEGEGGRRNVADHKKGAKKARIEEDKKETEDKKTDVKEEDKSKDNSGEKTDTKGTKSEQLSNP

`Cc1cc(C)c(CNC(=O)c2cc(-c3ccc(N4CCN(c5ncc(C(=O)NO)cn5)CC4)nc3)cc3c2cnn3C(C)C)c(=O)[nH]1`: the Activity with MV4-11 [1] was 23.3%; in the data set with MV4-11 [2], 72%; in the data set with MV4-11 [4], 92.9%; in the data set with MV4-11 [6], 2%; in the data set on MV4-11 [8] it was 5.4%. Moreover, the viability at 0.4 µM in the data set on MV4-11 [3] came to 53.8%. The IC50 is 0.78 µM on Histone deacetylase 2; 1.47 µM in data set [7]; 8.19 µM on Histone deacetylase 7; 2.86 µM at Histone deacetylase 5; 0.11 µM on Histone deacetylase 8. In addition, the half-life in data set [5] is 15.3 min.

(Values after ChEMBL document CHEMBL5108052, “Histone Deacetylase and Enhancer of Zeste Homologue 2 Dual Inhibitors Presenting a Synergistic Effect for the Treatment of Hematological Malignancies” (J Med Chem, 2022).)
